# Test results published in US20250283017A1, “CLEANING COMPOSITIONS WITH ALKYLATED AMINO ACID SURFACTANTS HAVING ANTIMICROBIAL PROPERTIES” (THE CLOROX COMPANY, priority 2024, published 2025).
# Key:
# [1] = Stability of alkylated amino acid in cleaning composition 1 by HPLC-UV peak area vs t=0; type: physicochemical; details: HPLC-UV peak area relative to t=0; for % at t = 4 w (70° F.): 4 weeks; for % at t = 4 w (70° F.) / % at t = 8 w (70° F.): 70° F. (21° C.); for % at t = 8 w (70° F.) / % at t = 8 w (100° F.): 8 weeks; for % at t = 8 w (100° F.): 100° F. (38° C.)
# Method: The cleaning compositions were prepared using the formulation previously described herein as cleaning composition 1, where each tested cleaning composition was comprised of the following: 0.3 wt % alkylated amino acid, 1 wt % surfactant (lauryl amine oxide), 0.5 wt % fragrance (butyl levulinate), and balance water (about 98.2 wt % water).
# The stability tests were tested for amino acid stability at different temperatures, 70° F. (21° C.) and 100° F. (38° C.), over the following periods of time: 4 weeks (4w) and 8 weeks (8w). The samples tested were subjected to HPLC-UV analysis, and the peak areas of the plotted data corresponding to the alkylated amino acids in the samples at 4w and 8w were compared with the reference (sample at t=0) to obtain a percentage value (based upon measured area at different times divided by measured area of reference, t=0).
# Percentage values of 70% or greater indicate adequate stability of the alkylated amino acids within the cleaning compositions over the 4 and 8 week time periods and at the given temperatures, where increasing percentage values (e.g., above 85%, 90% or even at or greater than 100%) indicate very stable cleaning compositions with little or no degradation of the alkylated amino acids within the compositions.
# [2] = system: Staphylococcus aureus; assay: GST (germicidal spray test) AOAC 961.02 micro-efficacy of cleaning compositions; type: cell-based; details: 0.3 wt % alkylated amino acid, balance water, pH about 7, contact time 7 minutes; for GST efficacy in Cleaning Composition 1: 1 wt % lauryl amine oxide, 0.5 wt % butyl levulinate; for GST efficacy in Cleaning Composition 3: 1 wt % alkyl polyglucoside
# Method: A number of tests were conducted for Cleaning Compositions 1-3 including different alkylated amino acids as set forth in Tables 1 and 2 as described herein. Tests were conducted using GST (germicidal spray test) testing method AOAC 961.02 for micro-efficacy (i.e., ability to kill bacteria) against Staphylococcus aureus. The contact time in the test method was 7 minutes, and the neutralizer utilized was Letheen Broth+0.07% Lecithin+0.5% Tween 80.
Compound,% at t = 4 w (70° F.) [1] [%],% at t = 8 w (70° F.) [1] [%],% at t = 8 w (100° F.) [1] [%],GST efficacy in Cleaning Composition 1 [2] [%],GST efficacy in Cleaning Composition 2 [2] [%],GST efficacy in Cleaning Composition 3 [2] [%]
CCCCCCCCCCCC(=O)NC(CCCNC(=N)N)C(=O)OCC (stereo not shown) [Example 1],80,71,27,>99.999,>99.999,
CCCCCCCCCCCCNC(CCCNC(=N)N)C(=O)O (stereo not shown) [Example 2],100,100,100,>99.999,>99.999,
CCCCCCCCCCCCNC(=O)C(N)CCCNC(=N)N (stereo not shown) [Example 4],106,112,81,>99.999,>99.999,
CCCCCCCCCCCCNC(CCCNC(=N)N)C(=O)OCC (stereo not shown) [Example 5],,,,>99.999,>99.999,
CCCCCCCCCCCC(=O)NC(CCCCN)C(=O)OCC (stereo not shown) [Example 16],88,79,37,>99.999,>99.999,
CCCCCCCCCCCCNC(CCCCN)C(=O)O (stereo not shown) [Example 17],90,102,102,>99.999,>99.999,
CCCCCCCCCCCCNC(=O)C(N)CCCCN (stereo not shown) [Example 20],97,89,62,>99.999,>99.999,
CCCCCCCCCCCC(=O)NCCCCC(N)C(=O)OCC (stereo not shown) [Example 21],13,4,0,>99.999,>99.999,
CCCCCCCCCCCCNCCCCC(N)C(=O)O (stereo not shown) [Example 22],100,150,146,>99.999,>99.999,
CCCCCCCCCCCCNCC(=O)OCC [Example 60],8,0,0,>99.999,,
CCCCCCCCCCCCOC(=O)CN [Example 61],0,0,0,>99.999,,>99.8
CCCCCCCCCCCCNC(=O)CN [Example 62],90,87,59,>99.999,,>99.999
CCCCCCCCCCCCNC(CC(C)C)C(=O)OCC (stereo not shown) [Example 80],93,85,89,99.99,99.4,
CCCCCCCCCCCCOC(=O)C(N)CC(C)C (stereo not shown) [Example 81],64,36,5,>99.999,95.3,>99.8
CCCCCCCCCCCCNC(=O)C(C)CC(C)C (stereo not shown) [Example 82],90,100,93,>99.999,,>99.999
CCCCCCCCCCCCNC(Cc1ccccc1)C(=O)OCC (stereo not shown) [Example 88],93,91,74,99.999,,
CCCCCCCCCCCCOC(=O)C(N)Cc1ccccc1 (stereo not shown) [Example 89],82,63,12,99.999,99.5,99.6
CCCCCCCCCCCCNC(=O)C(N)Cc1ccccc1 (stereo not shown) [Example 90],104,101,96,>99.999,,>99.999
CCCCCCCCCCCCNC(Cc1ccc(O)cc1)C(=O)OCC (stereo not shown) [Example 92],99,59,57,99.99,,
CCCCCCCCCCCCOC(=O)C(N)Cc1ccc(O)cc1 (stereo not shown) [Example 93],75,56,8,>99.999,99.9,99.4
CCCCCCCCCCCCNC(=O)C(N)Cc1ccc(O)cc1 (stereo not shown) [Example 94],98,94,86,>99.999,,>99.999
CCCCCCCCCCCCNC(Cc1c[nH]c2ccccc12)C(=O)OCC (stereo not shown) [Example 96],94,87,35,99.999,,
CCCCCCCCCCCCOC(=O)C(N)Cc1c[nH]c2ccccc12 (stereo not shown) [Example 97],92,73,6,>99.999,,
CCCCCCCCCCCCNC(=O)C(N)Cc1c[nH]c2ccccc12 (stereo not shown) [Example 98],118,135,121,>99.999,,99.4
